Where “and” joins values, the source holds several entries; their conditions need not be identical. Identical values can stand only once.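 Five compound concentrations were applied to cells in 96-well plates for 48 hours; endpoints were derived by simple linear interpolation of the resulting dose-response curve. At the GI50, growth is halved. TGI denotes the concentration required for complete inhibition of growth.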
Tests used:
Test in all cases: NCI tumour cell line growth inhibition, 48 h
MALME-3M melanoma = system: MALME-3M melanoma
SK-MEL-5 melanoma = system: SK-MEL-5 melanoma
786-0 renal = system: 786-0 renal
T-47D breast = system: T-47D breast
K-562 leukemia = system: K-562 leukemia
SW-620 colon = system: SW-620 colon
SF-539 CNS = system: SF-539 CNS
MOLT-4 leukemia = system: MOLT-4 leukemia
NCI-H460 lung = system: NCI-H460 lung
CAKI-1 renal = system: CAKI-1 renal

| SMILES | GI50 (MALME-3M melanoma) | TGI (MALME-3M melanoma) | GI50 (SK-MEL-5 melanoma) | TGI (SK-MEL-5 melanoma) | GI50 (786-0 renal) | TGI (786-0 renal) | GI50 (T-47D breast) | TGI (T-47D breast) | GI50 (K-562 leukemia) | TGI (K-562 leukemia) | GI50 (SW-620 colon) | TGI (SW-620 colon) | GI50 (SF-539 CNS) | TGI (SF-539 CNS) | GI50 (MOLT-4 leukemia) | TGI (MOLT-4 leukemia) | GI50 (NCI-H460 lung) | TGI (NCI-H460 lung) | GI50 (CAKI-1 renal) | TGI (CAKI-1 renal) |
| --- | --- | --- | --- | --- | --- | --- | --- | --- | --- | --- | --- | --- | --- | --- | --- | --- | --- | --- | --- | --- |
| CC(=O)Oc1cc2c(OC(C)=O)c(-c3c(C)cc4c(C(C)C)c(OC(C)=O)c(OC(C)=O)cc4c3OC(C)=O)c(C)cc2c(C(C)C)c1OC(C)=O | 5.49 µM and 5.36 µM and 9.03 µM | 13.8 µM and 13.7 µM and 23.7 µM | 17.4 µM and 4.66 µM and 7.79 µM | 33.2 µM and 9 µM and 17 µM | 7.26 µM and 6.91 µM and 11.4 µM | 20.8 µM and 16.5 µM and 35.4 µM | > 100 µM and 10.2 µM and 19.1 µM | > 100 µM and > 25.2 µM and 36.1 µM | 21.3 µM and 6.13 µM and 9.67 µM | 63.1 µM and > 21.4 µM and 25.8 µM | 19.6 µM and 4.74 µM and 9.38 µM | 43.7 µM and 9.61 µM and 22.5 µM | 6.52 µM and 5.37 µM and 12.5 µM | 12.5 µM and 10.5 µM and 31.3 µM | 4.48 µM and 23.6 µM and 6.76 µM | 14.9 µM and > 100 µM and 21.2 µM | 6.16 µM and 6.95 µM and 11.6 µM | 15.3 µM and 17.5 µM and 32.3 µM | 7.61 µM and 6.16 µM and 11.5 µM | 21.9 µM and 13.1 µM and 30.9 µM |
| O=C(CCC(C(=O)c1ccccc1)c1ccccc1)c1ccccc1 (stereo unspecified) | 5.51 µM | 63.8 µM | 9.29 µM | 34.3 µM | 49.4 µM | > 100 µM | 7.69 µM | > 100 µM | 3.75 µM | > 100 µM | 3.75 µM | > 100 µM | 52 µM | > 100 µM | 5.75 µM | > 100 µM | 6.5 µM | > 100 µM | 5.7 µM | > 100 µM |
| Cc1cc(O)cc(C)c1/C=C/c1cncc(-c2nn[nH]n2)c1 | > 25 µM | > 25 µM | > 25 µM | > 25 µM | > 25 µM | > 25 µM | > 25 µM | > 25 µM | > 25 µM | > 25 µM | > 25 µM | > 25 µM | > 25 µM | > 25 µM | > 25 µM | > 25 µM | > 25 µM | > 25 µM | > 25 µM | > 25 µM |
| C/C(=C\COc1c2c(cc3c1CCO3)OC1(C=C2)OC(CC/C(C)=C/COc2c3ccoc3cc3oc(=O)ccc23)C(C)(C)O1)CCC(O)C(C)(C)O (stereo unspecified) | 68.7 µM | > 100 µM | 8.85 µM | > 100 µM | > 100 µM | > 100 µM | 3.13 µM | > 100 µM | 3.82 µM | > 100 µM | 62.3 µM | > 100 µM | 63.5 µM | > 100 µM | 4.76 µM | 53.1 µM | 9.65 µM | > 100 µM | 8.07 µM | > 100 µM |
| COc1ccc2c(c1OC)OCC(CN(C)C)C2=O (stereo unspecified) |  | 34.8 µM |  | 31.6 µM |  | 25.9 µM |  | > 62.2 µM |  | 10.5 µM |  | 26.4 µM |  | 36.7 µM |  | 5.32 µM |  | > 66.6 µM |  | 11.3 µM |
| COc1cnc2c(c1)C(=O)c1c-2n(CCCNC(C)C)c(=O)c2cc(F)ccc12 | 0.197 µM | 0.937 µM | 0.156 µM | 0.496 µM | 0.116 µM | 0.482 µM | 0.0846 µM | 0.651 µM | 0.129 µM | 1.72 µM | 0.122 µM | 1.33 µM | 0.245 µM | 0.703 µM | 0.0362 µM | 0.267 µM | 0.042 µM | 0.175 µM |  |  |
| CSc1ncnc2c1ncn2C1OC(CO)C(O)OC1O (stereo unspecified) |  | 70.5 µM |  | 17.6 µM |  | 43.5 µM |  | 17.7 µM |  | 59.8 µM |  | > 100 µM |  | 16.9 µM |  | 30.1 µM |  | 16 µM |  | > 51.7 µM |
| C=C1C(=O)O[C@@H]2C1C[C@@H](O)C(=C)CC/C=C(\C)CCC[C@H](C)[C@H]2OC(C)=O (stereo partly specified) |  |  | 2.76 µM | 10.8 µM | 4.84 µM | 16.3 µM | 6.46 µM | 42.3 µM | 2.8 µM | 7.76 µM | 3.81 µM | 13.6 µM | 12.8 µM | 26.3 µM | 2.54 µM | 5.9 µM | 18.2 µM | 41.4 µM | 4.06 µM | 14.7 µM |
| O=c1oc2ccc(-n3c(=O)c4ccccc4c4ccccc4c3=O)cc2c2ccccc12 |  | > 100 µM |  | > 100 µM |  | > 100 µM |  | > 100 µM |  | > 100 µM |  | > 100 µM |  | > 100 µM |  | > 100 µM |  | > 100 µM |  | > 100 µM |
| O=C(/C(=C/c1ccc([N+](=O)[O-])cc1)SCc1ccc(F)cc1)c1ccc(Cl)cc1 | 10.1 µM | 24.6 µM | 4.33 µM | 15.2 µM | 10.9 µM | 24.6 µM | 7 µM | 26.2 µM | 3.05 µM | > 100 µM | 2.03 µM | 4.78 µM | 15.5 µM | 33.2 µM | 3.54 µM | > 100 µM | 19 µM | > 100 µM |  |  |
| CCCCCCCCCCCCCCCCOP(=O)(O)OP(=O)(O)OCC1OC(n2ccc(N)nc2=O)C(O)C1O (stereo unspecified) | > 100 µM and 46.7 µM | > 100 µM |  | > 100 µM | > 100 µM and 26.2 µM | > 100 µM |  | > 100 µM | > 100 µM and 41.8 µM | > 100 µM |  | > 100 µM |  | > 100 µM |  | > 100 µM |  | > 100 µM | > 100 µM and 26.1 µM | > 100 µM |
| CC[C@@]1(O)C(=O)OCc2c1cc1n(c2=O)Cc2c-1nc1cc3c(cc1c2C)OCO3 | 0.000457 µM | 3.92 µM | < 0.0001 µM | 0.0559 µM | < 0.0001 µM | 8.15 µM | < 0.0001 µM |  | 0.000488 µM | > 100 µM | < 0.0001 µM | > 100 µM | < 0.0001 µM | 0.000149 µM | < 0.0001 µM |  | < 0.0001 µM | 0.0868 µM and 0.0135 µM | < 0.0001 µM | 0.235 µM and 0.122 µM |
| CCN(CC)CCNc1cc(-c2cccc(OC(F)(F)F)c2)nc2ccc(N3CCCC3)cc12 | 1.72 µM and 2.01 µM and 1.69 µM | 3.34 µM and 3.76 µM and 3.17 µM | 1.63 µM and 1.91 µM and 1.7 µM | 2.99 µM and 3.35 µM and 3.17 µM | 1.66 µM and 1.67 µM and 1.59 µM | 3.19 µM and 3.23 µM | 1.78 µM and 2.12 µM | 4.04 µM and 4.32 µM | 1.36 µM and 1.8 µM and 2.18 µM | 6.14 µM and 5.09 µM and 5.01 µM | 1.67 µM and 1.86 µM and 2.01 µM | 3.25 µM and 3.79 µM and 4.36 µM | 1.68 µM and 1.74 µM and 1.79 µM | 3.2 µM and 3.32 µM and 3.36 µM | 1.84 µM and 1.92 µM and 2.08 µM | 4.7 µM and 4.92 µM and 6.08 µM | 1.62 µM and 1.7 µM | 3.27 µM and 3.47 µM | 1.58 µM and 1.41 µM and 3.08 µM | 3.29 µM and 2.76 µM and 11.5 µM |
| c1ccc(CN=C(NCc2ccccc2)NCc2ccccc2)cc1 | 3.56 µM | 17.1 µM | 3.95 µM | 14.6 µM | 11.4 µM | 25.7 µM | 4.7 µM | 17 µM | 2.6 µM | 11.9 µM | 4.42 µM | 17.9 µM | 11.9 µM | 27.5 µM | 3.77 µM | 19.1 µM | 5.1 µM | 19.5 µM | 11.1 µM | 26.7 µM |

Reference: PubChem BioAssay (NCI)
